Laboratory results from patent US4716109A, “Immunoassay” (Boots-Celltech Diagnostics Limited, priority 1983, dated 1987).
Numbered stars: 1 amine (or outer) side, 2 acyl side, 3 side chain; on linkers, the order of the positions; unused ones are H or OH. Square brackets hold non-standard residues; d marks the D form. Peptide text beside a SMILES is read from it. * marks the point of attachment. X3 = CC(=O)[C@H]1CC[C@H]2[C@@H]3CCC4=CC(=O)CC[C@]4(C)[C@H]3[C@H](OCC(=O)*)C[C@]12C; X1 = CC(=O)C1CCC2C3CCC4=CC(=O)CCC4(C)C3C(OC3OC(C(=O)*)C(O)C(O)C3O)CC12C; Sta = CC(C)C[C@H](N)[C@@H](O)CC(=O)O; X2 = CC(C)CC(N[*:1])C(O)CC(=O)[*:2]

Experiments:
[1] = test system: Monoclonal progesterone antibody 11P12; format: binding; settings: radioimmunoassay
Excerpt: Monoclonal progesterone antibody was obtained from Dr. Wang of the Imperial Cancer Research Fund Laboratories, Lincolns Inn, London, England. It had been raised against the immunogen progesterone-11 -hemisuccinyl-bovine serum albumin according to the method of V. E. Fantl, D. Y. Wang and R. E. Knyba, J. Steroid Biochem, 1982, 17, 125-130. The monoclonal antibody of choice for use in the specific assay described below is designated 11P12 in the above mentioned publication.
(§1) A radioimmunoassay employing tritiated progesterone and dextran coated charcoal separation of bound and free progesterone was used to assess the immunoreactivity of progesterone derivatives and progesterone-inhibitor conjugates with the monoclonal and polyclonal antisera, by the method of R. B. Heap, R. J. Holdsworth, J. E. Gadsby, J. A. Laing and D. E. Walters, Brit. Vet. J. 1976, 132, 445-464.

[2] = test system: Polyclonal antiserum to progesterone (18/3); format: binding; settings: radioimmunoassay, polyclonal antiserum 18/3
Excerpt: (§2) Polyclonal antisera to progesterone were obtained from the Milk Marketing Board, Veterinary Laboratories, Cleeve House, Lower Wick, Worcester, England and from Guildhay Antisera, Division of Clinical Biochemistry, Department of Biochemistry, University of Surrey, Guildford, Surrey, England. The antiserum from the Milk Marketing Board had been raised against the immunogen progesterone-11α -hemisuccinyl-bovine serum albumin and the Guildhay antiserum raised against progesterone-11α -hemisuccinyl-ovalbumin.
as §1

[3] = biological target: T1, chymosin milk-clotting activity (Bos taurus, UniProt P00794); assay: Milk-clotting assay in microtiter plates; format: biochemical, calf
T1 construct: purchased Sigma Chemical Co. Ltd., or from recombinant prochymosin (E. coli) supplied by Celltech Ltd; host or cells: calf enzyme, or E. coli for the recombinant prochymosin
Method: Milk-clotting assays were carried out in the wells of microtiter plates. In each assay, after a suitable reaction time, the microtiter plate was inverted. Where clotting occurred, the clots remained in the wells of the plate, and where there was no clotting, the contents of the wells were decanted.
The general assay procedure was as follows:
20 μl of assay buffer containing 0.2% bovine serum albumin was pipetted into the wells of a microtiter plate. This was followed by 25 μl of assay buffer alone, or assay buffer containing the desired concentration of progesterone-inhibitor conjugate followed by 25 μl of assay buffer alone, or assay buffer containing the desired concentration of progesterone antibody. Then 30 μl of assay buffer containing the desired concentration of chymosin was added. This was followed by 100 μl of a milk substrate solution. The microtiter plate containing the assay mixture was placed in an incubator at 37° C. for 1 hour. At the end of this time the plate was inverted over a sink and tapped very lightly a few times, and then placed inverted on some tissue paper. The presence of clots was readily observed and either scored on a microtiter plate diagram or alternatively the inverted plate was photocopied against a dark background.
Dilutions of chymosin in assay buffer were prepared at 1/1000, 1/1100, 1/1210, 1/1331, 1/1464, 1/1611, 1/1772, 1/1949. 30 μl of each diluted enzyme solution was used in each microtiter well. A solution of the progesterone-inhibitor designated P4SP2, at a concentration of 40 pmol/ml was prepared; 25 μl (1 pmol) being used in each microtiter well. Dilutions of sheep polyclonal antiserum HPS 53-IIb (supplied by Guildhay Antisera) were prepared at 1/50, 1/100 and 1/200; 25 ul of each dilution being used in each microtiter well.
A 1/50 dilution of antibody to progesterone (HPS53 IIb--Guildhay antisera) was used, together with a fixed concentration of progesterone-inhibitor conjugate P4SP2 (100 pmol/ml). The final concentration of conjugate was 1 pmol/well. Progesterone was dissolved in assay buffer at a concentration of 0.5 nmol/ml, to give a final concentration of 7.5 pmol/well. Incubation mixtures containing 0.571 ml of assay buffer containing 0.2% BSA, 0.714 ml of dilute antibody, 0.429 ml of progesterone in assay buffer and 0.286 ml of inhibitor conjugate were prepared. Control incubates were also prepared in which antibody, progesterone, or both were replaced by equivalent volumes of assay buffer. A similar series of incubation mixtures in which progesterone-inhibitor conjugate was replaced by assay buffer was also prepared. These mixtures were incubated at 4° C. for 2 hours. At the end of the incubation, 70 μl of incubate was transferred to each well in duplicate rows on the microtitre plate. Dilution of a 1 mg/ml solution of chymosin in assay buffer were prepared as follows: 1/1210 1/1331, 1/1464, 1/1611, 1/1772, 1/1949, 1/2144, 1/2358, 1/2594, 1/2835, 1/3138, 1/3452. 30 μl of each dilution was added to each well in a column of the microtitre plates. These dilutions gave a final concentration of 0.71, 0.64, 0.58, 0.53, 0.48, 0.44, 0.40, 0.36, 0.33, 0.30, 0.27 and 0.25 pmol/well. 100 ul of milk substrate was added to each well and the plates were incubated for one hour at 37° C. before checking for clotting. In the absence of progesterone, antibody and progesterone-inhibitor conjugate, the limiting concentration of chymosin necessary for clotting is 0.36 pmol/well. […]

Chymosin = biological target: T2, Chymosin (Bos taurus, UniProt P00794); assay: Enzyme inhibition with chromogenic peptide substrate; format: biochemical, calf; settings: pH 6.0
T2 construct: purchased Sigma Chemical Co. Ltd., or from recombinant prochymosin (E. coli) supplied by Celltech Ltd; host or cells: calf enzyme, or E. coli for the recombinant prochymosin
Excerpt: Enzyme inhibition data was obtained using synthetic peptide substrates containing a chromophoric nitrophenylalanine residue in the position of the scissile bond so that hydroysis can be followed spectrophotometrically. Hydrolysis was followed at 300 nm and the substrate can be used at any pH value (usually between 2-6) at which the enzyme is active.

[4] = test system: Polyclonal antiserum to progesterone HPS 645IIc; assay: Radioimmunoassay for immunoreactivity with polyclonal antiserum HPS 645IIc; format: binding
Excerpt: as §2, §1

[5] = test system: Polyclonal antiserum to progesterone HPS 53IIb; assay: Radioimmunoassay for immunoreactivity with polyclonal antiserum HPS 53IIb; format: binding, sheep
Excerpt: as §2, §1
Dilutions of chymosin in assay buffer were prepared at 1/1000, 1/1100, 1/1210, 1/1331, 1/1464, 1/1611, 1/1772, 1/1949. 30 μl of each diluted enzyme solution was used in each microtiter well. A solution of the progesterone-inhibitor designated P4SP2, at a concentration of 40 pmol/ml was prepared; 25 μl (1 pmol) being used in each microtiter well. […]

[6] = biological target: Endothia Parasitica Protease (Cryphonectria parasitica, UniProt P11838); assay: Enzyme inhibition with chromogenic peptide substrate; format: biochemical
Excerpt: Enzyme inhibition data was obtained using synthetic peptide substrates containing a chromophoric nitrophenylalanine residue in the position of the scissile bond so that hydroysis can be followed spectrophotometrically. Hydrolysis was followed at 300 nm and the substrate can be used at any pH value (usually between 2-6) at which the enzyme is active. Kinetic parameters for the hydrolysis of a chromogenic peptide substrate by different types of mammalian aspartic proteinases have been reported J. Kay, M. J. Valler and B. M. Dunn, Naturally-occurring inhibitors of Aspartic Proteinases in Proteinase Inhibitors; N. Katunuma, H. Umezawa and H. Holzer Eds., 1983 Springer-Verlag, Berlin (in press).

[7] = Endothia Parasitica Protease, pH 3.1

T2 sequence (P00794 59-381): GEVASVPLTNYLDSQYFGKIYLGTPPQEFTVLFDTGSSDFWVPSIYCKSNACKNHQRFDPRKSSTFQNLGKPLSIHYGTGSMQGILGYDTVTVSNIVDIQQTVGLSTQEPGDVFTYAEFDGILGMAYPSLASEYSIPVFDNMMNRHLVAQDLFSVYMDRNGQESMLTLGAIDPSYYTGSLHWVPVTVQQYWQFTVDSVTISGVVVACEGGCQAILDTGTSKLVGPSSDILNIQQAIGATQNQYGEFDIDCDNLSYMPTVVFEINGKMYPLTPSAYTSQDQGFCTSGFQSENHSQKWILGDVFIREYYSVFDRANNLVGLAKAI
T1 sequence (P00794 59-381): as above
Chain of Endothia Parasitica Protease (P11838 90-419): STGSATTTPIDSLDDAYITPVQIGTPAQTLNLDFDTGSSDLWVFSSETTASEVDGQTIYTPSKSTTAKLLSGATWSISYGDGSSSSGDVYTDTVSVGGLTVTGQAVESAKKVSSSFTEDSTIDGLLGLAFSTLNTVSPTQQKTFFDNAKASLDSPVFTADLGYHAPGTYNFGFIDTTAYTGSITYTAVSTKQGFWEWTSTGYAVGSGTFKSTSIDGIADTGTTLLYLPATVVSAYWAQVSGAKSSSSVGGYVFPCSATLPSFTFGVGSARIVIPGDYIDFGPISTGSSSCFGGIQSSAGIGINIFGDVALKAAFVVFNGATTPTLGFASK

| Compound | Immunoreactivity Monoclonal 11P12 [1] [%] | Immunoreactivity Polyclonal (18/3) [2] [%] | Ki (Chymosin) [nM] | Ki ([6]; Endothia, pH 6.0) [nM] | also measured |
| --- | --- | --- | --- | --- | --- |
| CC(=O)[C@H]1CC[C@H]2[C@@H]3CCC4=CC(=O)CC[C@]4(C)[C@H]3[C@H](OC3O[C@H](C(=O)O)[C@@H](O)[C@H](O)[C@H]3O)C[C@]12C (stereo partly drawn) [I, Progesterone11α-glucuronide, reference compound] | 151 | 92.1 |  |  |  |
| CC(=O)[C@H]1CC[C@H]2[C@@H]3CCC4=CC(=O)CC[C@]4(C)[C@H]3[C@H](OCC(=O)O)C[C@]12C [II, Progesterone11α-carboxymethylether, reference compound] | 77.4 |  |  |  |  |
| CC(=O)[C@H]1CC[C@H]2[C@@H]3CCC4=CC(=O)CC[C@]4(C)[C@H]3CC[C@]12C [Progesterone, reference compound] |  |  |  |  | limiting concentration of chymosin necessary for clotting ([3]; progesterone alone, 7.5 pmol/well, no conjugate, compared with control 0.36 pmol/well): remains the same |
| CC[C@H](C)[C@H](NC(=O)[C@H](C)NC(=O)C[C@H](O)[C@H](CC(C)C)NC(=O)[C@H](CO)NC(=O)[C@H](CC(C)C)NC(=O)CO[C@@H]1C[C@]2(C)[C@@H](C(C)=O)CC[C@H]2[C@@H]2CCC3=CC(=O)CC[C@]3(C)[C@H]21)C(=O)N1CCC[C@H]1C(=O)N1CCC[C@H]1C(=O)N[C@@H](CCCCN)C(=O)N[C@@H](CCCCN)C(=O)O [VII] (X3-LS[Sta]AIPPKK-OH) | 17.1 | 33.6 | 6.7 | 26 | Immunoreactivity Polyclonal (HPS 645IIc) [4]: 17.4%; Immunoreactivity Polyclonal (HPS 53IIb) [5]: 42.1% |
| CCC(C)C(NC(=O)C(C)NC(=O)CC(O)C(CC(C)C)NC(=O)C(CO)NC(=O)C(CC(C)C)NC(=O)C1OC(OC2CC3(C)C(C(C)=O)CCC3C3CCC4=CC(=O)CCC4(C)C23)C(O)C(O)C1O)C(=O)N1CCCC1C(=O)N1CCCC1C(=O)NC(CCCCN)C(=O)NC(CCCCN)C(=O)O (stereo not shown) [VI] (X1-LS[X2]AIPPKK-OH; configuration not given here) | 3.8 | 16.4 | 20 | 470 | milk clotting with conjugate in the presence of antibody ([3]; 1 pmol/well conjugate plus 1/50 antibody HPS53 IIb (FIG. 3)): clotting is restored; milk clotting with conjugate in the presence of antibody and free progesterone ([3]; 1 pmol/well conjugate, 1/50 antibody HPS53 IIb, progesterone 7.5 pmol/well (FIG. 3)): antibody restoration of clotting activity was impaired; modulation by antibody of the conjugate's inhibition of chymosin milk clotting activity ([3]; 1 pmol/well conjugate, antiserum HPS 53-IIb at 1/50, 1/100, 1/200, chymosin dilutions 1/1000-1/1949 (FIG. 1)): can be modulated by the addition of antibody; chymosin required to give a visible clot (limiting concentration of chymosin necessary for clotting) ([3]; 1 pmol/well of the inhibitor conjugate, no antibody, no progesterone, 1 h 37° C., control without additions 0.36 pmol/well): 0.44 pmol/well; Immunoreactivity Polyclonal (HPS 53IIb) [5]: 34% |
| CCC(C)C(NC(=O)C(C)NC(=O)CC(O)C(CC(C)C)NC(=O)C(CO)NC(=O)C(CC(C)C)NC(=O)C(Cc1c[nH]cn1)NC(=O)C1OC(OC2CC3(C)C(C(C)=O)CCC3C3CCC4=CC(=O)CCC4(C)C23)C(O)C(O)C1O)C(=O)N1CCCC1C(=O)N1CCCC1C(=O)NC(CCCCN)C(=O)NC(CCCCN)C(=O)O (stereo not shown) [V] (X1-HLS[X2]AIPPKK-OH; configuration not given here) | 31.8 | 9.5 | 52 | 40 |  |
| Achisleuserstualaileproprolyslys [IV] |  |  |  |  | Ki [6, 7]: 6 nM |
| Hisleuserphestatalaileproprolyslys [III] |  |  |  |  | Ki [6, 7]: 10 nM |
